Results: patent US8633301B2, “Antitumor combinations containing antibodies recognizing specifically CD38 and vincristine” (Sanofi, priority 2008, dated 2014)
“And” between values parts separate entries of the source, which are not always exact repeats. Equal values may be shown once. “Also recorded” adds a separate entry of the source.

What was measured:
[1] = Toxicity (body weight change, drug death) in DND-41 tumor-bearing SCID mice; format: in vivo
[2] = system: human T-cell acute lymphoblastic leukemia (T-ALL) cell line, DND-41; experiment: Antitumor efficacy against advanced DND-41 tumors implanted in SCID mice; conditions: for T-C (tumor growth delay): time to reach 750 mg; for TFS (tumor free survivors): end of study day 160
Description: A product is considered to be active if log10 cell kill is greater than or equal to 0.7. A product is considered to be very active if log10 cell kill is greater than or equal to 2.8.
The animals subjected to the experiment, generally mice, are subcutaneously grafted bilaterally with 30 to 60 mg of a tumor fragment on day 0. The animals bearing tumors are randomized based on their tumor size before being subjected to the various treatments and controls. Chemotherapy begins when tumors have reached a predetermined size after grafting, depending on the type of tumor, and the animals are observed every day. […] The groups are then weighed once or twice a week until the end of the trial.
The tumors are measured 1 to 5 times a week, depending on the tumor doubling time, until the tumor reaches approximately 2 g, or until the animal dies (if this occurs before the tumor reaches 2 g). The animals are necropsied immediately after euthanasia or death.
The selected tumor model was a transplantable human T-cell acute lymphoblastic leukemia (T-ALL) cell line, DND-41, implanted in SCID mice.
Vincristine was formulated in 5% glucose in water.
Tumor doubling time=3.4 days.

[3] = biological target: T1, murine CD38 (Mus musculus, UniProt P56528); experiment: Cross-reactivity of the antibody with murine CD38; format: binding
T1 sequence (P56528 1-304): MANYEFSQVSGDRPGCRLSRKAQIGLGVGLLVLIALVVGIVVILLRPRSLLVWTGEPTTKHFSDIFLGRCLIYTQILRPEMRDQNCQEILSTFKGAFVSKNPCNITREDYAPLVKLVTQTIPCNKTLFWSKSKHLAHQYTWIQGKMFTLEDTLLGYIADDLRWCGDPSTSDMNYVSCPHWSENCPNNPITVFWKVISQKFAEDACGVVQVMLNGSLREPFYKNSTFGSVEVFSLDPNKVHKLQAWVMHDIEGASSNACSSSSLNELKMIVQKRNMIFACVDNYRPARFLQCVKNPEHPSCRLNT

[4] = vincristine alone 0.3 mg/kg/inj (total 1.2) IV
[5] = vincristine alone 0.5 mg/kg/inj (total 2.0) IV
[6] = vincristine alone 0.8 mg/kg/inj (total 3.2) IV
[7] = vincristine alone 0.3 mg/kg/inj IV
[8] = vincristine alone 0.5 mg/kg/inj IV
[9] = vincristine alone 0.8 mg/kg/inj IV
[10] = hu38SB19 alone 40.0 mg/kg/inj (total 160.0) IV days 18, 21, 24, 27
[11] = hu38SB19 alone 40.0 mg/kg/inj IV

Compound: CC[C@]1(O)C[C@H]2CN(CCc3c([nH]c4ccccc34)[C@@](C(=O)OC)(c3cc4c(cc3OC)N(C=O)[C@H]3[C@@](O)(C(=O)OC)[C@H](OC(C)=O)[C@]5(CC)C=CCN6CC[C@]43[C@@H]65)C2)C1 [vincristine, Vincristine]
- BWC (body weight change) at nadir [1, 4]: −0.4%
- drug death ([1]; vincristine alone 0.3 mg/kg/inj (total 1.2) IV days 18, 21, 24, 27): 0/6
- BWC (body weight change) at nadir [1, 5]: −5.3%
- drug death ([1]; vincristine alone 0.5 mg/kg/inj (total 2.0) IV days 18, 21, 24, 27): 0/6
- BWC (body weight change) at nadir [1, 6]: −10.4%
- drug death ([1]; vincristine alone 0.8 mg/kg/inj (total 3.2) IV days 18, 21, 24, 27): 0/6
- BWC (body weight change) at nadir ([1]; vincristine alone 1.3 mg/kg/inj (total 5.2) IV): −25.2%
- drug death ([1]; vincristine alone 1.3 mg/kg/inj (total 5.2) IV days 18, 21, 24, 27): 0/6
- comments (activity/toxicity rating) ([1]; vincristine alone 1.3 mg/kg/inj IV): Toxic (−25% BWC)
- body weight loss at nadir ([1]; vincristine alone 1.3 mg/kg/injection, nadir on day 27): 25.2%
- highest nontoxic dose (HNTD) ([1]; vincristine alone IV days 18, 21, 24, 27, total injected dose 3.2 mg/kg): 0.8 mg/kg/inj
- log10 cell kill [2, 4]: 1.4
- T-C (tumor growth delay) [2, 4]: 15.6 days
- comments (activity/toxicity rating) [2, 7]: remained active
- TFS (tumor free survivors) [2, 7]: 0/6
- log10 cell kill [2, 5]: 3.8
- T-C (tumor growth delay) [2, 5]: 43.3 days
- comments (activity/toxicity rating) [2, 8]: Highly active
- TFS (tumor free survivors) [2, 8]: no TFS and 0/6
- log10 cell kill [2, 6]: 4.4
- T-C (tumor growth delay) [2, 6]: 49.6 days
- comments (activity/toxicity rating) [2, 9]: HNTD - Highly active
- TFS (tumor free survivors) [2, 9]: no TFS and 0/6

Compound: hu38SB19: humanized anti-CD38 monoclonal antibody 38SB19; VH SEQ ID NO: 66, VL SEQ ID NO: 62 or 64
- tolerability / toxicity ([1]; hu38SB19 alone 40 mg/kg/inj): well tolerated
- BWC (body weight change) at nadir [1, 10]: −2.1%
- drug death [1, 10]: 0/6
- log10 cell kill [2, 10]: 0.5
- T-C (tumor growth delay) [2, 10]: 6.1 days
- comments (activity/toxicity rating) [2, 11]: not active; also recorded: HDT- Inactive
- TFS (tumor free survivors) [2, 11]: 0/6
- cross-reactivity with murine CD38 [3]: lack of cross-reactivity
